In patent US20050221285A1, “Method for identifying or screening anti-viral agents” (priority 2001, published 2005):
Values after ≈ are worked out from the molar mass of the structure shown.

System: RSV Long wild type
Experiment: Assay for compounds active against RSV (HEp2 cells, MTT cell viability)
Conditions: human respiratory syncytial virus, HEp-2
Protocol: Graded concentrations of test compounds were prepared by serial dilution in 96 well tissue culture plates containing 100 μL per well of assay media (Eagles Minimal Essential Medium (MEM) supplemented with 2% foetal bovine serum and Glutamine alanyl-L-glutamine). […] 1.5×10^4 of the diluted cells were added to several individual wells of each 96 well plate which were designated uninfected control wells. The remaining cell suspension was exposed to infectious RSV by addition of sufficient virus to the suspension to yield a concentration of 0.4 plaque forming units per cell. The cell-virus suspension was mixed well by inversion and 100 μL immediately dispensed into the remaining wells of the 96 well plates. Assay plates were incubated in a 37° C. incubator for 5 days. Viral replication was quantified by determination of cell viability substantially as described by Watanabe and colleagues (Watanabe, W. et al., J. Virol. Methods, 48: 257-265, 1994). Briefly, 100 μL of 3 mg/mL MTT (3(4,5-dimethylthiazol-2-yl)-2,5-diphenyltetrazolium bromide) was added to each well and plates incubated at 37° C. in a 5% CO2 incubator for 2 hours. […] The extent of metabolism was measured via determination of absorbance using a computer-controlled microplate reader at 540 nm with a reference wavelength of 690 nm. […]

Question: How did the EC50 turn out when `NC(=O)c1ncn(C2O[C@H](CO)[C@@H](O)[C@H]2O)n1` (stereo partly drawn) [Ribavirin, 1-D-ribofuranosyl-1H-1,2,4-triazole-3-carboxamide] was run?
Answer: 5.54 µg/mL (≈ 22.7 µM)
